Measured values published in patent EP3807270B1, “NOVEL HETEROARYL HETEROCYCLYL COMPOUNDS FOR THE TREATMENT OF AUTOIMMUNE DISEASE” (F. Hoffmann-La Roche AG, priority 2018, dated 2019).

Key:
hTLR7 = target: T1, hTLR7 (Homo sapiens, UniProt Q9NYK1); assay: HEK293-Blue-hTLR-7 cells assay (SEAP reporter, R848 stimulation); type: cell-based; parameters: host or cells: HEK293 (HEK-Blue); conditions: HEK293-Blue-hTLR7 cells, R848, 20 hrs; read-out: HEK/hTLR7 IC50
T1 sequence (Q9NYK1 27-1049): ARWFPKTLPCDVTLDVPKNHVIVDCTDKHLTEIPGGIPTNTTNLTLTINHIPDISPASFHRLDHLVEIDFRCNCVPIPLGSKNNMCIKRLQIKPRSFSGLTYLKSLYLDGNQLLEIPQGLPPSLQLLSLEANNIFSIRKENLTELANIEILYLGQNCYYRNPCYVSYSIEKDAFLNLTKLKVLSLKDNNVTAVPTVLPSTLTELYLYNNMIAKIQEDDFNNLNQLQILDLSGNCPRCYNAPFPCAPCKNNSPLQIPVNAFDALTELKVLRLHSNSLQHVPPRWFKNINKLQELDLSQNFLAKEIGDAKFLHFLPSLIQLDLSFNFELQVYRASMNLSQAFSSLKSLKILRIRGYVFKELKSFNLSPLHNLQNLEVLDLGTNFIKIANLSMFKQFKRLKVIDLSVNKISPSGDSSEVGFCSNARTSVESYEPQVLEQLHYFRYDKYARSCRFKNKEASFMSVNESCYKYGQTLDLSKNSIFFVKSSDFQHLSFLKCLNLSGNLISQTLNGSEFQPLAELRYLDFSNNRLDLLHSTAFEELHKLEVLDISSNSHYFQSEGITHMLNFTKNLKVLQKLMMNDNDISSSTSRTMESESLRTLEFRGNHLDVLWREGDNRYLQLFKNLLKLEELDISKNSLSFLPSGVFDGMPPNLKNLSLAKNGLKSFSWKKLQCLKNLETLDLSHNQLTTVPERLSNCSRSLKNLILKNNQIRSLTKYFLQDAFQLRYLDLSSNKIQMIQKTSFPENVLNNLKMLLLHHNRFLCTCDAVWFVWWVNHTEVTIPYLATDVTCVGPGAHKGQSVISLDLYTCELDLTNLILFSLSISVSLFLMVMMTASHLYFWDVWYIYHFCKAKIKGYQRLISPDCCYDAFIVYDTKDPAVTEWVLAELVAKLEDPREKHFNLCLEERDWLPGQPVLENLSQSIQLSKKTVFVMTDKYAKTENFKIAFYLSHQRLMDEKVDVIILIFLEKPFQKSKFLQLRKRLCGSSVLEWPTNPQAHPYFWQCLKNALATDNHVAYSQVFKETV
Outline: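 HEK293-Blue cells stably expressing human TLR7 with an NF-κB/AP-1-driven SEAP reporter were treated with serially diluted compound (1% DMSO final) plus R848 for 20 h at 37 °C. Supernatant SEAP activity was measured with QUANTI-Blue substrate after 2 h at 37 °C, with absorbance read at 620-655 nm.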

hERG channel = target: T2, hERG channel (Homo sapiens, UniProt Q12809); assay: hERG channel inhibition assay (patch-clamp, CHO hERG cells); type: cell-based; conditions: for IC50 / IC20: CHO hERG cells, whole-cell patch-clamp; for IC20: human, CHO cells stably expressing hERG; for hERG IC20 / TLR7 IC50 / hERG IC20 / TLR9 IC50 / hERG IC20 / TLR8 IC50: safety ratio; for hERG IC20 / TLR7 IC50: TLR7 IC50 of ER compounds from Table 1; for hERG IC20 / TLR9 IC50: TLR9 IC50 of ER compounds from Table 1
T2 construct: expressed in transfected cells; host or cells: CHO (Chinese hamster ovary)
T2 sequence (Q12809 whole entry): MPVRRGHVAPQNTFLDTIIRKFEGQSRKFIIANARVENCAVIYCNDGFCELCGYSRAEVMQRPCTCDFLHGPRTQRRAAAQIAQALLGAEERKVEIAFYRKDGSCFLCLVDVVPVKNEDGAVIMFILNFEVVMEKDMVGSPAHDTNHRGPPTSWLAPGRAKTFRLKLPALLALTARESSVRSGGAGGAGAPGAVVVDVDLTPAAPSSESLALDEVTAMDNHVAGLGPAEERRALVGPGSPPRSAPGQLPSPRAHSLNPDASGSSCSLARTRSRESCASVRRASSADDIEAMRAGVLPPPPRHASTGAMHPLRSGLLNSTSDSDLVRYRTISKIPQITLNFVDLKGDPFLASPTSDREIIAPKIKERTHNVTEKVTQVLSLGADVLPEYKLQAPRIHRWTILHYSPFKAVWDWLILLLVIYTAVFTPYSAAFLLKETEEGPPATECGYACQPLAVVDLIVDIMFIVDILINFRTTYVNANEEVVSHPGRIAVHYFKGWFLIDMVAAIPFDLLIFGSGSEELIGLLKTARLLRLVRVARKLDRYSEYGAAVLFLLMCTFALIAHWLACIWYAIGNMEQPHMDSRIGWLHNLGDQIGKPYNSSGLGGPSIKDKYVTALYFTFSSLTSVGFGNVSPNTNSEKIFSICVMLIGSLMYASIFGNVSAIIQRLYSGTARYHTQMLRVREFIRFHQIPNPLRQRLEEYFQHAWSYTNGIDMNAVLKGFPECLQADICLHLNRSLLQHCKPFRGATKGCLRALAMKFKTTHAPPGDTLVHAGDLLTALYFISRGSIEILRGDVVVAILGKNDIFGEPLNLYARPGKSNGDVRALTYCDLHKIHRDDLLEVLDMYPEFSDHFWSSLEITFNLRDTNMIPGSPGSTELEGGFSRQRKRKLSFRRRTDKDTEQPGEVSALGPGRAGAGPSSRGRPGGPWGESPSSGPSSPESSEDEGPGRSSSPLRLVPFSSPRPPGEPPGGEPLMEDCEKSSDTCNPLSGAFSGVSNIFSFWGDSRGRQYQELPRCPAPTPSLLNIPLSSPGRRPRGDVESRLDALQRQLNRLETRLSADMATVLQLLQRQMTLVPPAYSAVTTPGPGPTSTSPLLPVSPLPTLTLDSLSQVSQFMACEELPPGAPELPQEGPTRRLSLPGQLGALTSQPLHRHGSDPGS
Outline: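 Whole-cell voltage-clamp on CHO cells stably expressing human hERG, IKhERG evoked at 0.1 Hz. Compound applied at rising concentrations, each held 3-10 min to steady state; current amplitude and kinetics expressed against control taken as 100%.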

Structure (SMILES): C[C@@H]1CN(c2ccc(C#N)c3nccnc23)C[C@H](CN2CCN(c3cc4c(cn3)[C@@H](C)NCC4)CC2)O1 (single isomer, unassigned) [Example 86]
- IC50 (hTLR7): 6 nM

Structure (SMILES): C[C@@H]1CN(c2ccc(C#N)c3nccnc23)C[C@H](CN2CCN(c3cc4c(cn3)CCN[C@@H]4C)CC2)O1 (single isomer, unassigned) [Example 87]
- IC50 (hTLR7): 4 nM

Structure (SMILES): C[C@@H]1CN(c2ccc(C#N)c3nccnc23)C[C@H](CN2CCN(c3cc4c(cn3)CCN[C@H]4C)CC2)O1 (single isomer, unassigned) [Example 88]
- IC50 (hTLR7): 6 nM

Structure (SMILES): [2H]c1nc2c(C#N)ccc(N3C[C@H](CN4CCN(c5cc6c(cn5)[C@H](C)NCC6)CC4)O[C@H](C)C3)c2nc1[2H] (single isomer, unassigned) [Example 94]
- IC50 (hTLR7): 4 nM

Structure (SMILES): [2H]c1nc2c(C#N)ccc(N3C[C@H](CN4CCN(c5cc6c(cn5)[C@@H](C)NCC6)CC4)O[C@H](C)C3)c2nc1[2H] (single isomer, unassigned) [Example 95]
- IC50 (hTLR7): 5 nM

Structure (SMILES): [2H]c1nc2c(C#N)ccc(N3C[C@H](CN4CCN(c5ccc6c(n5)CN[C@H]6C)CC4)O[C@H](C)C3)c2nc1[2H] (single isomer, unassigned) [Example 96]
- IC50 (hTLR7): 4 nM

Structure (SMILES): [2H]c1nc2c(C#N)ccc(N3C[C@H](CN4CCN(c5ccc6c(n5)CN[C@@H]6C)CC4)O[C@H](C)C3)c2nc1[2H] (single isomer, unassigned) [Example 97]
- IC50 (hTLR7): 7 nM

Structure (SMILES): [2H]c1ccc2c(N3C[C@H](CN4CCN(c5ccc6c(n5)CN[C@@H]6C)CC4)O[C@H](C)C3)ccc(C#N)c2n1 (single isomer, unassigned) [Example 98]
- IC50 (hTLR7): 8 nM

Structure (SMILES): [2H]c1ccc2c(N3C[C@H](CN4CCN(c5ccc6c(n5)CN[C@H]6C)CC4)O[C@H](C)C3)ccc(C#N)c2n1 (single isomer, unassigned) [Example 99]
- IC50 (hTLR7): 11 nM

Structure (SMILES): C[C@@H]1CN(c2ccc(C#N)c3ncccc23)C[C@H](CN2CCN(c3ccncc3)CC2)O1 [ER-888286, reference compound]
- IC50 (hERG channel): 1300 nM
- IC20 (hERG channel): 348 nM
- hERG IC20 / TLR7 IC50 (hERG channel): 0.3
- hERG IC20 / TLR9 IC50 (hERG channel): 0.2

Structure (SMILES): C[C@@H]1CN(c2ccc(C#N)c3ncccc23)C[C@H](CN2CCN(c3ccc4c(c3)CNCC4)CC2)O1 [Example 9, 5-[(2R,6S)-2-methyl-6-[[4-(1,2,3,4-tetrahydroisoquinolin-7-yl)piperazin-1-yl]methyl]morpholin-4-yl]quinoline-8-carbonitrile]
- IC50 (hERG channel): > 20000 nM
- IC20 (hERG channel): 6160 nM
- hERG IC20 / TLR8 IC50 (hERG channel): 410.5
- hERG IC20 / TLR7 IC50 (hERG channel): 148.0
- hERG IC20 / TLR9 IC50 (hERG channel): 80.4
- IC50 (hTLR7): 42 nM

Structure (SMILES): C[C@@H]1CN(c2ccc(C#N)c3ncccc23)C[C@H](CN2CCN(c3cnc4c(c3)CNC4)CC2)O1 [Example 10, 5-[(2S,6R)-2-[[4-(6,7-dihydro-5H-pyrrolo[3,4-b]pyridin-3-yl)piperazin-1-yl]methyl]-6-methyl-morpholin-4-yl] quinoline-8-carbonitrile]
- IC50 (hERG channel): > 20000 nM
- IC20 (hERG channel): > 10000 nM
- hERG IC20 / TLR8 IC50 (hERG channel): >442.5
- hERG IC20 / TLR7 IC50 (hERG channel): >289.9
- hERG IC20 / TLR9 IC50 (hERG channel): >187.3
- IC50 (hTLR7): 35 nM
